Here are results for 7 compounds from PubChem BioAssay (NCI).

Some test systems named below: CAKI-1 renal; MOLT-4 leukemia; M14 melanoma; EKVX NSCLC; MDA-MB-231 breast; PC-3 prostate; UACC-62 melanoma; OVCAR-3 ovarian; MALME-3M melanoma; SNB-75 CNS.
Test in all cases: DTP human tumour cell line panel, 48 h

“And” between values parts separate entries of the source, which are not always exact repeats. Equal entries are not always repeated.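 Protocol summary: plate cells (96-well), add compound at 5 concentrations, incubate 48 h, interpolate endpoints linearly. Abbreviation: GI50, concentration required for 50% inhibition of growth. Definition used: TGI = concentration required for complete inhibition of growth.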

Take `Cc1cc(C)nc(NC(N)=NCCc2ccccc2)n1`: the GI50 – broadly, the concentration at which growth is held to half of that of the control – with CAKI-1 renal is 19.4 µM; in the experiment on MOLT-4 leukemia, 6.01 µM; with M14 melanoma it was 2.8 µM; in the experiment on EKVX NSCLC, 3.66 µM; with MDA-MB-231 breast, 6.55 µM; with PC-3 prostate, 3.88 µM. In addition, the GI50 in the experiment on UACC-62 melanoma was 2.97 µM; with OVCAR-3 ovarian, 2.76 µM; in the experiment with MALME-3M melanoma, 2.23 µM; in the experiment on SNB-75 CNS, 2.08 µM. Also, the TGI (commonly the concentration giving total growth inhibition) is 97.5 µM in the experiment on CAKI-1 renal; more than 100 µM in the experiment with MOLT-4 leukemia; 24.2 µM in the experiment on M14 melanoma; 89.9 µM with EKVX NSCLC; 52.8 µM with MDA-MB-231 breast; more than 100 µM in the experiment with PC-3 prostate. The TGI in the experiment on UACC-62 melanoma was 21.4 µM; with OVCAR-3 ovarian, 8.35 µM; with MALME-3M melanoma it was 10.5 µM; in the experiment with SNB-75 CNS, 9.75 µM.
`Nc1ccn(C2OC(CO)C(O)C2F)c(=O)n1` (configuration not stated): the GI50 in the experiment with CAKI-1 renal is 582 µM and > 5000 µM; in the experiment with MOLT-4 leukemia, 2.98 µM; in the experiment with M14 melanoma, more than 5000 µM; in the experiment with EKVX NSCLC, more than 5000 µM; in the experiment on MDA-MB-231 breast, more than 5000 µM; with PC-3 prostate, more than 5000 µM. Further, the GI50 in the experiment on UACC-62 melanoma, in the experiment with OVCAR-3 ovarian, in the experiment on MALME-3M melanoma and with SNB-75 CNS was more than 5000 µM in each case. The TGI with CAKI-1 renal, in the experiment on M14 melanoma, in the experiment on EKVX NSCLC, in the experiment on MDA-MB-231 breast, in the experiment on PC-3 prostate and with UACC-62 melanoma was more than 5000 µM each time. In addition, the TGI in the experiment on OVCAR-3 ovarian, in the experiment with MALME-3M melanoma and in the experiment with SNB-75 CNS was more than 5000 µM in each case.
In the case of `COc1cc(/C(Cl)=C/C=C/C(=O)c2c(C)[n+]([O-])c3ccc(Cl)cc3[n+]2[O-])cc(OC)c1OC`, the GI50 with CAKI-1 renal was 1.66 µM; in the experiment with MOLT-4 leukemia it was 1.35 µM; in the experiment on M14 melanoma, 3.68 µM; in the experiment on EKVX NSCLC, 14.2 µM; in the experiment with MDA-MB-231 breast it was 6.94 µM; with PC-3 prostate it was 3.58 µM. The GI50 in the experiment with UACC-62 melanoma is 3.42 µM; in the experiment on OVCAR-3 ovarian, 2.39 µM; in the experiment with MALME-3M melanoma it was 6.35 µM; in the experiment with SNB-75 CNS, 4.06 µM. Besides, the TGI in the experiment with CAKI-1 renal is 10.6 µM; with MOLT-4 leukemia, 3.56 µM; with M14 melanoma, 40.4 µM; with EKVX NSCLC, more than 50 µM; in the experiment on MDA-MB-231 breast, 17.8 µM; in the experiment on PC-3 prostate, more than 50 µM. In addition, the TGI with UACC-62 melanoma came out at 27.1 µM; in the experiment on OVCAR-3 ovarian, 10 µM; in the experiment with MALME-3M melanoma it was 18.5 µM; with SNB-75 CNS, 19.6 µM.
As to `C[n+]1c(/C=C\C=C\N2CCCCC2)sc2ccccc21`, the GI50 with CAKI-1 renal was 4.8 µM; in the experiment with MOLT-4 leukemia it was 0.401 µM; in the experiment with M14 melanoma, 2.82 µM; with EKVX NSCLC, 0.255 µM; with MDA-MB-231 breast, 1.01 µM; in the experiment with PC-3 prostate it was 0.237 µM. Further, the GI50 in the experiment with UACC-62 melanoma was 0.691 µM; in the experiment on OVCAR-3 ovarian, 0.243 µM; with MALME-3M melanoma, 0.311 µM; in the experiment on SNB-75 CNS it was 3.93 µM. The TGI was 28.9 µM in the experiment with CAKI-1 renal; 9.42 µM in the experiment on MOLT-4 leukemia; more than 35.2 µM with M14 melanoma; 10.8 µM in the experiment with EKVX NSCLC; 25.6 µM in the experiment on MDA-MB-231 breast; 2.97 µM with PC-3 prostate. The TGI with UACC-62 melanoma stood at 12.4 µM; in the experiment with OVCAR-3 ovarian, 5.81 µM; with MALME-3M melanoma it was 2.18 µM; in the experiment on SNB-75 CNS, 17 µM.
Regarding `C(=Nc1ccccc1)C1CCCC[N-]1.C(=Nc1ccccc1)C1CCCC[N-]1.[Cu+2].[O-][Cl+3]([O-])([O-])O` (configuration not stated), the GI50 was 3.96 µM in the experiment on CAKI-1 renal; 4.16 µM with MOLT-4 leukemia; 7.4 µM in the experiment with M14 melanoma; 19 µM with EKVX NSCLC; 9.75 µM in the experiment on MDA-MB-231 breast; 12.3 µM in the experiment with PC-3 prostate. Besides, the GI50 is 5 µM with UACC-62 melanoma, 13 µM in the experiment with OVCAR-3 ovarian, 14 µM in the experiment on MALME-3M melanoma and 23.6 µM in the experiment with SNB-75 CNS. Besides, the TGI in the experiment on CAKI-1 renal was found to be 16.6 µM; with MOLT-4 leukemia, 11.7 µM; in the experiment on M14 melanoma it was 27.9 µM; with EKVX NSCLC, 58.1 µM; in the experiment on MDA-MB-231 breast, 28.1 µM; in the experiment on PC-3 prostate, 34.2 µM. Besides, the concentration for total growth inhibition (TGI) with UACC-62 melanoma is 22.8 µM; in the experiment on OVCAR-3 ovarian, 20.4 µM; with MALME-3M melanoma, 33.9 µM; with SNB-75 CNS, 59 µM.
Turning to `CC1=NN(C(=O)c2ccccc2O)C(=O)/C1=C/c1ccc([N+](=O)[O-])cc1`, the GI50 was 0.549 µM in the experiment with CAKI-1 renal; 0.35 µM in the experiment with MOLT-4 leukemia; 3.01 µM in the experiment with M14 melanoma; 2.68 µM in the experiment with EKVX NSCLC; 0.371 µM with PC-3 prostate; 1.98 µM with OVCAR-3 ovarian. The GI50 is 0.895 µM with MALME-3M melanoma and 0.0532 µM with SNB-75 CNS. The total growth inhibition concentration (TGI) is more than 30.8 µM with CAKI-1 renal; more than 100 µM in the experiment on MOLT-4 leukemia; 40.7 µM with M14 melanoma; more than 100 µM in the experiment with EKVX NSCLC; more than 100 µM in the experiment on MDA-MB-231 breast; more than 100 µM with PC-3 prostate. For the same compound, the TGI with UACC-62 melanoma is 2.16 µM; with OVCAR-3 ovarian, 7.05 µM and 1.32 µM; in the experiment on MALME-3M melanoma, more than 100 µM; in the experiment on SNB-75 CNS, more than 100 µM.
For the compound `O=P([O-])(O)OP(=O)([O-])O.[NH-][C@H]1CCCC[C@@H]1[NH-].[OH-].[OH-].[Pt+4]`, the GI50 in the experiment on CAKI-1 renal is 34.4 µM; in the experiment with MOLT-4 leukemia, more than 100 µM; with M14 melanoma, 40.3 µM; with EKVX NSCLC, 25.3 µM; with MDA-MB-231 breast it was 25 µM; in the experiment on PC-3 prostate it was 25.2 µM. The GI50 is 22 µM in the experiment with UACC-62 melanoma, 21 µM in the experiment on OVCAR-3 ovarian, 14.3 µM with MALME-3M melanoma and 20.4 µM in the experiment with SNB-75 CNS. Besides, the TGI is more than 100 µM in the experiment with CAKI-1 renal; more than 100 µM with MOLT-4 leukemia; more than 100 µM with M14 melanoma; 68.3 µM in the experiment with EKVX NSCLC; 57.2 µM in the experiment with MDA-MB-231 breast; 68.2 µM in the experiment with PC-3 prostate. The TGI in the experiment with UACC-62 melanoma was 92.2 µM; with OVCAR-3 ovarian it was 39 µM; in the experiment with MALME-3M melanoma, 38.2 µM; in the experiment with SNB-75 CNS, 41 µM.
